Experimental findings from patent US20080293583A1, “Methods for diagnosing mood disorders” (Wyeth, priority 2003, published 2008) are described below.

What all share (format): in vivo
The subject of assay [1] is 10 KD heat shock protein, mitochondrial (Hsp10). Briefly: 2-DE proteome analysis of rat hippocampus: Hsp10. Particulars: rat hippocampus cytosolic extract, 10 mg/kg i.p. daily 14 days, vs control; gel spot 83. As for the experimental part: (§1) Animal dosing. Adult male Sprague Dawley rats weighing 230-320 g were housed with ad libitum access to food and water. After 1 week of habituation, rats were administered either an antidepressant or vehicle alone. The following drugs were administered intraperitoneally (i.p.): fluoxetine (10 mg/kg daily), venlafaxine (10 mg/kg daily) or vehicle alone (1 ml/kg normal saline daily) for 14 days (n=3 rats per group).
(§2) Sample preparation and cytosolic protein extraction. The animals were euthanized and hippocampi were rapidly dissected from the whole brain. Samples from each treatment group were pooled and stored at −85° C. Cytosolic extracts were prepared using the universal extraction kit from Sigma (prot-two) as follows: soluble cytoplasmic extraction reagent (S2688) was added to the hippocampal tissue (10 ml/250 mg wet weight). […]
(§3) Two-dimensional gel electrophoresis. […] Molecular masses were determined by running standard protein markers (Genomic Solutions Inc.), covering the range 10-200 kDa as well as internal verification via landmark proteins within the gel. […]
(§4) Protein fixation, silver staining and 2-D gel comparisons. […] Protein spots were outlined (first automatically and then manually) and quantified using the HT analyzer v2.2 software (Genomic Solutions Inc.). The software calculated the relative spot volume of the proteins compared with the total amount of protein in the gel. […]

The test system of assay [2] is Adenine Phosphoribosyltransferase (APRT). The assay can be described thus: 2-DE proteome analysis of rat hippocampus: APRT. To be noted: rat hippocampus cytosolic extract, 10 mg/kg i.p. daily 14 days, vs control; gel spot 57. As for the experimental part: as §1, §2, §3, §4
Assay [3] relates to Antioxidant protein 2 (calcium-independent PLA2). The assay can be described thus: 2-DE proteome analysis of rat hippocampus: Antioxidant protein 2. To be noted: rat hippocampus cytosolic extract, 10 mg/kg i.p. daily 14 days, vs control; gel spot 51. The procedure:
as §1, §2, §3, §4

Assay [4] deals with 61 S Ribosomal protein L28. The assay can be described thus: 2-DE proteome analysis of rat hippocampus: Ribosomal protein L28. To be noted: rat hippocampus cytosolic extract, 10 mg/kg i.p. daily 14 days, vs control; gel spot 66. The procedure:
as §1, §2, §3, §4

Assay [5] deals with 40 S ribosomal protein S 19. The assay can be described thus: 2-DE proteome analysis of rat hippocampus: ribosomal protein S 19. To be noted: rat hippocampus cytosolic extract, 10 mg/kg i.p. daily 14 days, vs control; gel spot 72. The procedure: as §1, §2, §3, §4
The test system of assay [6] is GLIA maturation factor beta (GMF-β). Briefly: 2-DE proteome analysis of rat hippocampus: GMF-β. To be noted: rat hippocampus cytosolic extract, 10 mg/kg i.p. daily 14 days, vs control; gel spot 67. The procedure: as §1, §2, §3, §4
Assay [7] concerns 60S Ribosomal Protein L35A. The assay can be described thus: 2-DE proteome analysis of rat hippocampus: Ribosomal Protein L35A. To be noted: rat hippocampus cytosolic extract, 10 mg/kg i.p. daily 14 days, vs control; gel spot 92. As for the experimental part: as §1, §2, §3, §4
In another assay the test system is IGF-1 A precursor. The assay can be described thus: 2-DE proteome analysis of rat hippocampus after antidepressant treatment: IGF-1 A precursor. To be noted: rat hippocampus cytosolic extract, 10 mg/kg i.p. daily 14 days, vs control; gel spot 87. As for the experimental part: as §1, §2, §3, §4
The next assay deals with Alpha-enolase. Briefly: 2-DE proteome analysis of rat hippocampus: Alpha-enolase. To be noted: rat hippocampus cytosolic extract, 10 mg/kg i.p. daily 14 days, vs control; for Fold change, Alpha-enolase (spot 8): gel spot 8; for Fold change, Alpha-enolase (spot 9): gel spot 9; for Fold change, Alpha-enolase (spot 10): gel spot 10. As for the experimental part:
as §1
Sample preparation and cytosolic protein extraction. The animals were euthanized and hippocampi were rapidly dissected from the whole brain. Samples from each treatment group were pooled and stored at −85° C. Cytosolic extracts were prepared using the universal extraction kit from Sigma (prot-two) as follows: soluble cytoplasmic extraction reagent (S2688) was added to the hippocampal tissue (10 ml/250 mg wet weight). Samples were sonicated (4 times at 30 seconds) and centrifuged for 45 minutes (14,000 g) at 4° C. The supernatant was decanted and stored on ice. Ten milliliters of the soluble cytoplasmic extraction reagent was added to the remaining pellet and the sonication and centrifugation steps were repeated. The supernatant was decanted, combined with the previous supernatant and SpeedVac (Savant Instruments, Halbrook, N.Y.) dried. Each sample was dissolved in 2 ml of 2-D lysis buffer (6 M urea, 2 M thiourea, 4% CHAPS, 40 mM Tris, 65 mM dithiothreitol (DTT), 1 mM sodium vanadate, 1 mM sodium fluoride, protease inhibitor tablet (#1836145, Roche)), concentrated and desalted (Centricon tube; 6500 rpm) at 10° C. for 12 hours.
Two-dimensional gel electrophoresis. First dimensional isoelectric focusing (IEF) was performed on 18 cm IPG strips (pH 4-7) using an IPGphor unit (Amersham Pharmacia). Each strip was rehydrated for 16 hours with sample lysate (˜500 ug) in a final volume of 400 uL of IEF solution (10 uL of bromophenol blue (0.25% w/v); 2 uL of Ampholyte (pH 4-7, Amersham #17-6000-86); 2-D lysis buffer). […] The strips were then subjected to a two-step equilibration (50 mM Tris; 2% SDS; 30% glycerol) in (A) 0.5% DTT (Bio-Rad) and (B) 4.5% iodoacetamide (Sigma) buffers before proceeding to SDS-PAGE. Separation in the second dimension was performed on 10% SDS polyacrylamide gels (180×1.5 mm) at a constant voltage of 500 V at 15° C. for 28 hours using an Investigator 2D electrophoresis unit (Genomic Solutions Inc., MA) which accommodated 10 gels. Molecular masses were determined by running standard protein markers (Genomic Solutions Inc.), covering the range 10-200 kDa as well as internal verification via landmark proteins within the gel. The pl values were used as given by the supplier of the immobilized pH-gradient strips.
Protein fixation, silver staining and 2-D gel comparisons. Silver staining of the gels was performed using a silver stain kit (gs#80-0183; Genomic Solutions). All steps were performed at room temperature, gently agitating the trays on a rotary shaker at low speed. Stained gels were scanned using an 8-bit ccd camera and the Investigator G3 ProPic system (Genomic Solutions Inc.). Protein spots were outlined (first automatically and then manually) and quantified using the HT analyzer v2.2 software (Genomic Solutions Inc.). The software calculated the relative spot volume of the proteins compared with the total amount of protein in the gel. The HT analyzer software was used to cross-match (‘synchronize’) and identify protein spots between control gels and drug treatment gels that were different in integrated intensity by at least a factor of 1.5 versus control. […] This population of spots were automatically picked from each gel with the ProPic system for in-gel trypsin digestion.
Enzymatic digestion of protein spots. Silver-stained protein spots were automatically excised and transferred to a 96-well polypropylene microtiter plate. Each excised spot was de-stained to remove the silver ions and enhance sensitivity with 30 mM potassium ferricyanide and 100 mM sodium thiosulfate (1:1 ratio). […]

The test system of assay [8] is Lymphotactin [precursor] (Cytokine SCM-1; Small inducible cytokine C1). The assay can be described thus: 2-DE proteome analysis of rat hippocampus: Lymphotactin. Particulars: rat hippocampus cytosolic extract, 10 mg/kg i.p. daily 14 days, vs control; gel spot 80. The procedure: as §1, §2, §3, §4
Assay [9] has as its system Probasin precursor (lipocalin family member). The assay can be described thus: 2-DE proteome analysis of rat hippocampus: Probasin precursor. To be noted: rat hippocampus cytosolic extract, 10 mg/kg i.p. daily 14 days, vs control; gel spot 70. The procedure:
as §1, §2, §3, §4

For assay [10], the system named is Hydroxysteroid sulfotransferase A (Androsterone-sulfating sulfotransferase). The assay can be described thus: 2-DE proteome analysis of rat hippocampus: Hydroxysteroid sulfotransferase A. To be noted: rat hippocampus cytosolic extract, 10 mg/kg i.p. daily 14 days, vs control; gel spot 79. The procedure:
as §1, §2, §3, §4

For assay [11], the system named is PCTAIRE-3 (Serine/Threonine-Protein Kinase). Briefly: 2-DE proteome analysis of rat hippocampus: PCTAIRE-3. Particulars: rat hippocampus cytosolic extract, 10 mg/kg i.p. daily 14 days, vs control; gel spot 6. The procedure: as §1, §2, §3, §4
Assay [12] relates to 60S Ribosomal Protein L18A. The assay can be described thus: 2-DE proteome analysis of rat hippocampus: Ribosomal Protein L18A. Particulars: rat hippocampus cytosolic extract, 10 mg/kg i.p. daily 14 days, vs control; gel spot 58. As for the experimental part: as §1, §2, §3, §4

The structures appear in SMILES notation.

Turning to `CNCCC(Oc1ccc(C(F)(F)F)cc1)c1ccccc1` (centres unmarked) [Fluoxetine, fluoxetine], the “Fold change, 10 KD heat shock protein, mitochondrial (Hsp10)” value in [1] came to 2.3 Fold change. In assay [2], the “Fold change, Adenine Phosphoribosyltransferase (APRT)” value turned out to be 5.8 Fold change. The “Fold change, Antioxidant protein 2” value in assay [3] stood at 1.6 Fold change. Moreover, in assay [4], the “Fold change, 61 S Ribosomal protein L28” value is given as 0.7 Fold change. Also, the “Fold change, 40 S ribosomal protein S 19” value in [5] is given as 2 Fold change. Also, in assay [6], the “Fold change, GLIA maturation factor beta (GMF-β)” value was found to be 3 Fold change. For the same compound, the “Fold change, 60S Ribosomal Protein L35A” value in [7] came to 2.2 Fold change. The “Fold change, IGF-1 A precursor” value with IGF-1 A precursor was determined as 2.5 Fold change. In addition, in the assay with Alpha-enolase, the “Fold change, Alpha-enolase (spot 8)” value was found to be 3.4 Fold change; the “Fold change, Alpha-enolase (spot 9)” value was 5 Fold change; the “Fold change, Alpha-enolase (spot 10)” value is given as 3 Fold change. Also, in [8], the “Fold change, Lymphotactin [precursor]” value worked out at 2 Fold change. The “Fold change, Probasin precursor” value in assay [9] is given as 2.7 Fold change. Also, the “Fold change, Hydroxysteroid sulfotransferase A” value in assay [10] stood at 2 Fold change. Also, in assay [11], the “Fold change, PCTAIRE-3” value is recorded as 1.5 Fold change. For the same compound, the “Fold change, 60S Ribosomal Protein L18A” value in assay [12] was found to be 1.8 Fold change.

As for `COc1ccc(C(CN(C)C)C2(O)CCCCC2)cc1` (centres unmarked) [Venlafaxine, venlafaxine], in assay [1], the “Fold change, 10 KD heat shock protein, mitochondrial (Hsp10)” value came out at 3.8 Fold change. The “Fold change, Adenine Phosphoribosyltransferase (APRT)” value in assay [2] is 3 Fold change. Moreover, in assay [3], the “Fold change, Antioxidant protein 2” value was 1.7 Fold change. Besides, the “Fold change, 61 S Ribosomal protein L28” value in assay [4] was 0.6 Fold change. Further, the “Fold change, 40 S ribosomal protein S 19” value in assay [5] was found to be 1.8 Fold change. Further, the “Fold change, GLIA maturation factor beta (GMF-β)” value in [6] is recorded as 2.7 Fold change. In assay [7], the “Fold change, 60S Ribosomal Protein L35A” value came out at 2.5 Fold change. In the assay on IGF-1 A precursor, the “Fold change, IGF-1 A precursor” value is 2.9 Fold change. In the assay on Alpha-enolase, the “Fold change, Alpha-enolase (spot 8)” value is listed as 2 Fold change; the “Fold change, Alpha-enolase (spot 9)” value turned out to be 4.8 Fold change; the “Fold change, Alpha-enolase (spot 10)” value is recorded as 4.1 Fold change. The “Fold change, Lymphotactin [precursor]” value in assay [8] was 1.9 Fold change. In assay [9], the “Fold change, Probasin precursor” value amounted to 2.7 Fold change. For the same compound, the “Fold change, Hydroxysteroid sulfotransferase A” value in assay [10] is 2 Fold change. Further, the “Fold change, PCTAIRE-3” value in assay [11] was found to be 1.5 Fold change. Besides, the “Fold change, 60S Ribosomal Protein L18A” value in [12] came out at 2.9 Fold change.
